Laboratory results from patent US11845730B2, “1,3-substituted cyclobutyl derivatives and uses thereof” (Novartis AG, priority 2021, dated 2023).
Where a name gives a salt, the structure may show the parent alone.

Biological target: human TRPV1 (Homo sapiens (Human), UniProt Q8NER1)
Conditions: read-out: IC50 (μM), antagonist effect against human TRPV1; CHO cells expressing human TrpV1; stimulated with 2.5 μM NADA (EC80); mean of at least three independent experiments

Sequence of human TRPV1 (Q8NER1 whole entry): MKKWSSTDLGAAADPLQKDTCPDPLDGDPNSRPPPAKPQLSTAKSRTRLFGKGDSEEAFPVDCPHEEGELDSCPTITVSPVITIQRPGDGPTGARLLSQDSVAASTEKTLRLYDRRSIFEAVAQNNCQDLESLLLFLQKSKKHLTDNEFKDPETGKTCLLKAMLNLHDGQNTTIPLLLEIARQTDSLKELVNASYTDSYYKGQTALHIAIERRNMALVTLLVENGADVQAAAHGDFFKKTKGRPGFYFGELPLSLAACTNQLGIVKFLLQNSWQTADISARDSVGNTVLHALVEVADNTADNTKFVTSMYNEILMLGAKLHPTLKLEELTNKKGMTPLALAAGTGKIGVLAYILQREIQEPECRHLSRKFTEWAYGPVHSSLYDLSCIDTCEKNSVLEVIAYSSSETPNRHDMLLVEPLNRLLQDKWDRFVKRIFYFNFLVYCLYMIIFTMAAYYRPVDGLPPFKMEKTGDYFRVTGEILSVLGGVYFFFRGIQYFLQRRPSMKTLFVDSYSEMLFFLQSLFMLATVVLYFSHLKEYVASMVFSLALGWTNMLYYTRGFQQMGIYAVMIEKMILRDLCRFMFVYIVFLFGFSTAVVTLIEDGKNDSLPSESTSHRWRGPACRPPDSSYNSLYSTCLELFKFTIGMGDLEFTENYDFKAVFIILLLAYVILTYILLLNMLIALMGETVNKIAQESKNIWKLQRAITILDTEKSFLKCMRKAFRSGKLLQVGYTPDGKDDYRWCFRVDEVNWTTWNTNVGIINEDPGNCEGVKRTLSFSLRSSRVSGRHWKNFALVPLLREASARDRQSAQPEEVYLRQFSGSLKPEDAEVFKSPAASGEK

With `Fc1cc(F)cc(O[C@H]2C[C@H](NCc3c(F)ccc4cnccc34)C2)c1` [Example 82, (1r,3r)-3-(3,5-difluorophenoxy)-N-((6-fluoroisoquinolin-5-yl)methyl)cyclobutan-1-amine, HCl] as the molecule, how does the IC50 read?
The IC50 was 0.169 µM.

`Fc1ccc2cnccc2c1CN[C@H]1C[C@H](Oc2ccc(C3CC3)cc2)C1` [Example 85, (1r,3r)-3-(4-cyclopropylphenoxy)-N-((6-fluoroisoquinolin-5-yl)methyl)cyclobutan-1-amine, HCl] was tested. Which IC50 did it give?
The IC50 was 0.155 µM.

How did the IC50 turn out when `Fc1ccc2cnccc2c1CN[C@H]1C[C@H](Oc2cccc(C3(C(F)(F)F)CCO3)c2)C1` (some centres unmarked) [Example 44, (1r,3r)-N-((6-fluoroisoquinolin-5-yl)methyl)-3-(3-(2-(trifluoromethyl)oxetan-2-yl)phenoxy)cyclobutan-1-amine] was run?
The IC50 was 0.0326 µM.

`C[C@]1(NCc2c(F)ccc3cnccc23)C[C@@H](Oc2ccc(F)c(C(F)(F)F)c2)C1` [Example 68 cis, (1s,3s)-3-(4-fluoro-3-(trifluoromethyl)phenoxy)-N-((6-fluoroisoquinolin-5-yl)methyl)-1-methylcyclobutan-1-amine] was tested. Which IC50 did it give?
The IC50 was 0.333 µM.

`Oc1ccc(CN[C@H]2C[C@H](Oc3ccc(F)c(C(F)(F)F)c3)C2)c2ccncc12` [Example 23, 5-((((1r,3r)-3-(4-fluoro-3-(trifluoromethyl)phenoxy)cyclobutyl)amino)methyl)isoquinolin-8-ol, HCl] was tested. Which IC50 did it give?
The IC50 was 0.232 µM.

Which IC50 does the source give for `N#Cc1ccc(O[C@H]2C[C@H](NCc3c(F)ccc4cnccc34)C2)cc1C(F)(F)F` [Example 86, 4-((1r,3r)-3-(((6-fluoroisoquinolin-5-yl)methyl)amino)cyclobutoxy)-2-(trifluoromethyl)benzonitrile, HCl] here?
Its IC50 is 0.0693 µM.

Which IC50 does the source give for `OC[C@H](O)c1cc(F)c(CN[C@H]2C[C@H](Oc3ccc(F)c(C(F)(F)F)c3)C2)c2ccncc12` (single isomer, unassigned; peak 2) [Example 7 peak 2] here?
Its IC50 is 0.0063 µM.

With `Nc1cc2c(CN[C@H]3C[C@H](Oc4ccc(F)c(C(F)(F)F)c4)C3)c(F)cc(CO)c2cn1` [Example 18, (3-amino-6-fluoro-5-((((1r,3r)-3-(4-fluoro-3-(trifluoromethyl)phenoxy)cyclobutyl)amino)methyl)isoquinolin-8-yl)methanol, HCl] as the molecule, how does the IC50 read?
The IC50 was 0.00163 µM.

`OCC(O)c1cc(F)c(CN[C@H]2C[C@H](Oc3ccc(F)c(C(F)(F)F)c3)C2)c2ccncc12` (mixture of isomers) [Example 7 racemic, 1-(6-fluoro-5-((((1r,3r)-3-(4-fluoro-3-(trifluoromethyl)phenoxy)cyclobutyl)amino)methyl)isoquinolin-8-yl)ethane-1,2-diol] was tested. Which IC50 did it give?
Its IC50 is 0.0104 µM.

For `Fc1ccc(S[C@H]2C[C@H](NCc3c(F)ccc4cnccc34)C2)cc1C(F)(F)F` [Example 100, (1r,3r)-3-((4-fluoro-3-(trifluoromethyl)phenyl)thio)-N-((6-fluoroisoquinolin-5-yl)methyl)cyclobutan-1-amine, HCl], which IC50 is on record?
The IC50 was 0.074 µM.

For `Fc1ccc(O[C@H]2C[C@H](NCc3c(F)ccc4cnccc34)C2)cc1C(F)(F)F` [Example 3, (1r,3r)-3-(4-fluoro-3-(trifluoromethyl)phenoxy)-N-((6-fluoroisoquinolin-5-yl)methyl)cyclobutan-1-amine, HCl], which IC50 is on record?
The IC50 was 0.00344 µM.

With `Fc1cc(O[C@H]2C[C@H](NCc3c(F)ccc4cnccc34)C2)ccc1OC(F)(F)F` [Example 93, (1r,3r)-3-(3-fluoro-4-(trifluoromethoxy)phenoxy)-N-((6-fluoroisoquinolin-5-yl)methyl)cyclobutan-1-amine, HCl] as the molecule, how does the IC50 read?
Its IC50 is 0.0826 µM.

How did the IC50 turn out when `Fc1ccc2cnccc2c1CN[C@H]1C[C@H](Oc2ccc(C(F)F)nc2)C1` [Example 110, (1r,3r)-3-((6-(difluoromethyl)pyridin-3-yl)oxy)-N-((6-fluoroisoquinolin-5-yl)methyl)cyclobutan-1-amine] was run?
The IC50 was 1.38 µM.

`OC[C@@H](O)c1cc(F)c(CN[C@H]2C[C@H](Oc3ccc(F)c(C(F)(F)F)c3)C2)c2ccncc12` (single isomer, unassigned; peak 1) [Example 7 peak 1] was tested. Which IC50 did it give?
The IC50 was 0.00062 µM.

How did the IC50 turn out when `Fc1ccc2cnccc2c1CN[C@H]1C[C@H](Oc2ccc(C(F)(F)F)nc2)C1` [Example 94, (1r,3r)-N-((6-fluoroisoquinolin-5-yl)methyl)-3-((6-(trifluoromethyl)pyridin-3-yl)oxy)cyclobutan-1-amine, HCl] was run?
Its IC50 is 0.193 µM.

`Fc1ccc(O[C@H]2C[C@H](NCc3c(F)ccc4cnccc34)C2)cc1OC(F)(F)F` [Example 38, (1r,3r)-3-(4-fluoro-3-(trifluoromethoxy)phenoxy)-N-((6-fluoroisoquinolin-5-yl)methyl)cyclobutan-1-amine, HCl] was tested. Which IC50 did it give?
The IC50 was 0.0514 µM.

How did the IC50 turn out when `CCc1ccc2cnccc2c1CN[C@H]1C[C@H](Oc2ccc(F)c(C(F)(F)F)c2)C1` [Example 97, (1r,3r)-N-((6-ethylisoquinolin-5-yl)methyl)-3-(4-fluoro-3-(trifluoromethyl)phenoxy)cyclobutan-1-amine, HCl] was run?
Its IC50 is 0.28 µM.

With `Fc1ccc(O[C@H]2C[C@H](NCc3c(F)ccc4cnccc34)C2)c(F)c1` [Example 26, (1r,3r)-3-(2,4-difluorophenoxy)-N-((6-fluoroisoquinolin-5-yl)methyl)cyclobutan-1-amine] as the molecule, how does the IC50 read?
Its IC50 is 0.108 µM.

For `Fc1ccc2cnccc2c1CN[C@H]1C[C@H](Oc2ccc3ccccc3c2)C1` [Example 31, (1r,3r)-N-((6-fluoroisoquinolin-5-yl)methyl)-3-(naphthalen-2-yloxy)cyclobutan-1-amine, HCl], which IC50 is on record?
The IC50 was 0.264 µM.

`Cc1c(F)cc(O[C@H]2C[C@H](NCc3c(F)cc(CO)c4cnccc34)C2)cc1F` [Example 53, (5-((((1r,3r)-3-(3,5-difluoro-4-methylphenoxy)cyclobutyl)amino)methyl)-6-fluoroisoquinolin-8-yl)methanol] was tested. Which IC50 did it give?
Its IC50 is 0.0769 µM.

Which IC50 does the source give for `Nc1cc(F)c(CN[C@H]2C[C@H](Oc3ccc(F)c(C(F)(F)F)c3)C2)c2ccncc12` [Example 12, 6-fluoro-5-((((1r,3r)-3-(4-fluoro-3-(trifluoromethyl)phenoxy)cyclobutyl)amino)methyl)isoquinolin-8-amine] here?
The IC50 was 0.0578 µM.

How did the IC50 turn out when `Nc1cc2c(CN[C@H]3C[C@H](Oc4ccnc(C(F)(F)F)c4)C3)c(F)ccc2cn1` [Example 16, 6-fluoro-5-((((1r,3r)-3-((2-(trifluoromethyl)pyridin-4-yl)oxy)cyclobutyl)amino)methyl)isoquinolin-3-amine, HCl] was run?
The IC50 was 0.031 µM.

For `O=C(Cc1cccc2cnccc12)N[C@H]1C[C@H](Oc2ccc(F)c(C(F)(F)F)c2)C1` [Example 65, N-((1r,3r)-3-(4-fluoro-3-(trifluoromethyl)phenoxy)cyclobutyl)-2-(isoquinolin-5-yl)acetamide], which IC50 is on record?
Its IC50 is 0.00098 µM.

How did the IC50 turn out when `OCc1cc(F)c(CN[C@H]2C[C@H](Oc3ccc(F)c(C(F)(F)F)c3)C2)c2ccncc12` [Example 6, (6-fluoro-5-((((1r,3r)-3-(4-fluoro-3-(trifluoromethyl)phenoxy)cyclobutyl)amino)methyl)isoquinolin-8-yl)methanol, HCl] was run?
The IC50 was 0.00725 µM.

With `Fc1ccc2cnccc2c1CN[C@H]1C[C@H](Oc2cncc(C(F)(F)F)c2)C1` [Example 95, (1r,3r)-N-((6-fluoroisoquinolin-5-yl)methyl)-3-((5-(trifluoromethyl)pyridin-3-yl)oxy)cyclobutan-1-amine, HCl] as the molecule, how does the IC50 read?
The IC50 was 0.323 µM.

Which IC50 does the source give for `Fc1ccc2cnccc2c1CN[C@H]1C[C@H](Oc2cccc(C(F)(F)F)c2)C1` [Example 71, (1r,3r)-N-((6-fluoroisoquinolin-5-yl)methyl)-3-(3-(trifluoromethyl)phenoxy)cyclobutan-1-amine, HCl] here?
Its IC50 is 0.0316 µM.

With `Nc1cc2c(CN[C@H]3C[C@H](Oc4ccnc(C(F)(F)F)c4)C3)c(F)cc(CO)c2cn1` [Example 20, (3-amino-6-fluoro-5-((((1r,3r)-3-((2-(trifluoromethyl)pyridin-4-yl)oxy)cyclobutyl)amino)methyl)isoquinolin-8-yl)methanol, HCl] as the molecule, how does the IC50 read?
Its IC50 is 0.0872 µM.

`Nc1cc2c(CN[C@H]3C[C@H](Oc4ccc(F)c(C(F)(F)F)c4)C3)cccc2cn1` [Example 13, 5-((((1r,3r)-3-(4-fluoro-3-(trifluoromethyl)phenoxy)cyclobutyl)amino)methyl)isoquinolin-3-amine] was tested. Which IC50 did it give?
Its IC50 is 0.0637 µM.

`Fc1ccc2cnccc2c1CN[C@H]1C[C@H](Oc2ccc(OC(F)(F)F)cc2)C1` [Example 36, (1r,3r)-N-((6-fluoroisoquinolin-5-yl)methyl)-3-(4-(trifluoromethoxy)phenoxy)cyclobutan-1-amine, HCl] was tested. Which IC50 did it give?
The IC50 was 0.0989 µM.

With `Nc1cc2c(CN[C@H]3C[C@H](Oc4ccc(F)cc4F)C3)c(F)cc(CO)c2cn1` [Example 19, (3-amino-5-((((1r,3r)-3-(2,4-difluorophenoxy)cyclobutyl)amino)methyl)-6-fluoroisoquinolin-8-yl)methanol, HCl] as the molecule, how does the IC50 read?
Its IC50 is 0.0162 µM.

With `Nc1cc2c(CN[C@H]3C[C@H](Oc4ccc(C(F)(F)F)nc4)C3)c(F)ccc2cn1` [Example 17, 6-fluoro-5-((((1r,3r)-3-((6-(trifluoromethyl)pyridin-3-yl)oxy)cyclobutyl)amino)methyl)isoquinolin-3-amine, HCl] as the molecule, how does the IC50 read?
The IC50 was 0.13 µM.

`COc1c(F)cc(O[C@H]2C[C@H](NCc3c(F)ccc4cnccc34)C2)cc1F` [Example 49, (1r,3r)-3-(3,5-difluoro-4-methoxyphenoxy)-N-((6-fluoroisoquinolin-5-yl)methyl)cyclobutan-1-amine] was tested. Which IC50 did it give?
Its IC50 is 0.0163 µM.

`Fc1ccc(O[C@H]2C[C@H](NCc3c(F)ccc4cnccc34)C2)cc1C(F)F` [Example 91, (1r,3r)-3-(3-(difluoromethyl)-4-fluorophenoxy)-N-((6-fluoroisoquinolin-5-yl)methyl)cyclobutan-1-amine, HCl] was tested. Which IC50 did it give?
The IC50 was 0.0399 µM.

Which IC50 does the source give for `Fc1ccc2ccc(O[C@H]3C[C@H](NCc4c(F)ccc5cnccc45)C3)cc2c1` [Example 32, (1r,3r)-N-((6-fluoroisoquinolin-5-yl)methyl)-3-((7-fluoronaphthalen-2-yl)oxy)cyclobutan-1-amine, HCl] here?
Its IC50 is 0.102 µM.

`NCC(O)c1cc(F)c(CN[C@H]2C[C@H](Oc3ccc(F)c(C(F)(F)F)c3)C2)c2ccncc12` (some centres unmarked) [Example 104, 2-amino-1-(6-fluoro-5-((((1r,3r)-3-(4-fluoro-3-(trifluoromethyl)phenoxy)cyclobutyl)amino)methyl)isoquinolin-8-yl)ethan-1-ol] was tested. Which IC50 did it give?
Its IC50 is 2.15 µM.
